# Results reported in patent publication US20240209028A1, “CNP COMPOUNDS” (priority 2022, published 2024).
# Starred links: 1 amine or outer side, 2 acyl side, 3 side chain; linkers in the order of their positions; H or OH if unused. Positions of bridges follow the written chain, without caps; N, C: chain ends. Residues, ends and D or L forms follow the SMILES beside them. *: point of attachment. C18 diacid = O=C(O)CCCCCCCCCCCCCCCCC(=O)*; γGlu = O=C(O)[C@H](CCC(=O)[*:2])N[*:1]; AEEA = NCCOCCOCC(=O)O
# Molecular target: T1, human natriuretic peptide receptor 2 (hNPR2) (Homo sapiens, UniProt P20594)
# T1 construct: expressed in transfected cells; host or cells: HEK293 (ATCC CRL-1573), clone 35, co-transfected with pGloSensor-42F
# T1 sequence (P20594 23-1047): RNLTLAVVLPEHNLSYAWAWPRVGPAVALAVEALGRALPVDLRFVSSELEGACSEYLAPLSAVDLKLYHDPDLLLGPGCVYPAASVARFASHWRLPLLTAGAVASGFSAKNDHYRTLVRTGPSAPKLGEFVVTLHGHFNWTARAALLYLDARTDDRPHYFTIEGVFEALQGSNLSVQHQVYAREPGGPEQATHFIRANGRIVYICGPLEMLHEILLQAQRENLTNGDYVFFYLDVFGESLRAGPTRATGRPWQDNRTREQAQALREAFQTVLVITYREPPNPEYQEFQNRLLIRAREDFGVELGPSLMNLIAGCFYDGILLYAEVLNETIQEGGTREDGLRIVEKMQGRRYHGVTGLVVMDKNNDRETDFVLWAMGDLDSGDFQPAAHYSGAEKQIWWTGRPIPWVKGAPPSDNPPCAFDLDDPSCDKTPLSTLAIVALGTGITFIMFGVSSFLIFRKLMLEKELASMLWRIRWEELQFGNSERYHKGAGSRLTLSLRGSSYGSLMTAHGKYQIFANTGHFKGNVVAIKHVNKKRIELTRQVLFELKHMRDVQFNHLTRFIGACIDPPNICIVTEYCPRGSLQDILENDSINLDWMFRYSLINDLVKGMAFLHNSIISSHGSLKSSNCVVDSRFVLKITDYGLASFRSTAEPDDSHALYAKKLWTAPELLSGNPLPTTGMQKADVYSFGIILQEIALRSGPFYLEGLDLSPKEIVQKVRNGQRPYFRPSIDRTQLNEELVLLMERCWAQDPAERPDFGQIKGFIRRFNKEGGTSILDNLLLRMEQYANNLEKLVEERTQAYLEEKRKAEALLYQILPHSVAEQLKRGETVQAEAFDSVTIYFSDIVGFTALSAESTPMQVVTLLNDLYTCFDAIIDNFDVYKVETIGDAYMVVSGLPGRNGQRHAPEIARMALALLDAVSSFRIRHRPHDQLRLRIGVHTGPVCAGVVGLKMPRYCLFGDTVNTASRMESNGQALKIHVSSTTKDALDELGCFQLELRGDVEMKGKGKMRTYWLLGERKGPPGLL
# Experiment: In vitro hNPR2 activity assay (cGMP GloSensor reporter, HEK293)
# Format: cell-based
# Details: 0% HSA; HEK293-hNPR2/GloSensor cells
# How it was run: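 Potency is the EC50 from a four-parameter logistic fit, also expressed relative to the in-plate CNP22 control (×100), with at least two replicates. Compounds (ten concentrations, […], HSA-free diluent with 1% OVA, 0.01% Tween20) were incubated 30 min at 37 °C on HEK293 cells co-expressing hNPR2 and a GloSensor cGMP luciferase. Luminescence detected with Bright-Glo.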
row,SMILES,EC50 [nM]
1,CC[C@H](C)[C@@H]1NC(=O)[C@H](CCCNC(=N)N)NC(=O)[C@H](CC(=O)O)NC(=O)[C@H](CC(C)C)NC(=O)[C@H](CCCCN)NC(=O)[C@H](CC(C)C)NC(=O)CNC(=O)[C@H](Cc2ccccc2)NC(=O)[C@@H](NC(=O)CNC(=O)[C@H](CCC(N)=O)NC(=O)[C@H](CO)NC(=O)[C@H](CC(C)C)NC(=O)CNC(=O)[C@H](CCCCN)NC(=O)[C@H](CCCCN)NC(=O)[C@H](CCC(N)=O)NC(=O)[C@H](C)NC(=O)CNC(=O)[C@H](CCCCN)NC(=O)[C@H](Cc2ccc(O)cc2)NC(=O)[C@H](CCCCN)NC(=O)[C@H](CCCNC(=N)N)NC(=O)[C@H](C)NC(=O)COCCOCCNC(=O)COCCOCCNC(=O)COCCOCCNC(=O)COCCOCCNC(=O)CC[C@H](NC(=O)CC[C@H](NC(=O)CC[C@H](NC(=O)CC[C@H](NC(=O)CC[C@H](NC(=O)CCCCCCCCCCCCCCCCC(=O)O)C(=O)O)C(=O)O)C(=O)O)C(=O)O)C(=O)O)CSSC[C@@H](C(=O)O)NC(=O)CNC(=O)[C@H](CC(C)C)NC(=O)CNC(=O)[C@H](CO)NC(=O)[C@H](CC(C)C)NC(=O)[C@H](CO)NC(=O)CNC1=O [compound 1463] ({C18 diacid-γGlu-γGlu-γGlu-γGlu-γGlu-AEEA-AEEA-AEEA-AEEA}-ARKYKGAQKKGLSQGCFGLKLDRIGSLSGLGC-OH; disulfide 16-32),0.3

# Same assay, conditions: potency relative to CNP22 (0065)
row,SMILES,hNPR2 0% HSA. [EC50% rel CNP] [%]
1,CC[C@H](C)[C@@H]1NC(=O)[C@H](CCCNC(=N)N)NC(=O)[C@H](CC(=O)O)NC(=O)[C@H](CC(C)C)NC(=O)[C@@H]2CCCN2C(=O)[C@H](CC(C)C)NC(=O)CNC(=O)[C@H](Cc2ccccc2)NC(=O)[C@@H](NC(=O)CNC(=O)[C@H](CCC(N)=O)NC(=O)[C@H](CO)NC(=O)[C@H](CO)NC(=O)CNC(=O)[C@H](CCCCN)NC(=O)[C@H](CCCCN)NC(=O)[C@H](CCC(N)=O)NC(=O)[C@H](C)NC(=O)CNC(=O)[C@@H]2CCCN2C(=O)[C@H](C)NC(=O)[C@H](CCC(N)=O)NC(=O)CNC(=O)[C@@H]2CCCN2C(=O)[C@H](C)NC(=O)[C@H](CCC(N)=O)NC(=O)CNC(=O)COCCOCCNC(=O)COCCOCCNC(=O)CC[C@H](NC(=O)CCCCCCCCCCCCCCCCC(=O)O)C(=O)O)CSSC[C@@H](C(=O)O)NC(=O)CNC(=O)[C@H](CC(C)C)NC(=O)CNC(=O)[C@H](CO)NC(=O)[C@H](CC(C)C)NC(=O)[C@H](CO)NC(=O)CNC1=O [compound 1458] ({C18 diacid-γGlu-AEEA-AEEA}-GQAPGQAPGAQKKGSSQGCFGLPLDRIGSLSGLGC-OH; disulfide 19-35),93.6
2,CC[C@H](C)[C@@H]1NC(=O)[C@H](CCCNC(=N)N)NC(=O)[C@H](CC(=O)O)NC(=O)[C@H](CC(C)C)NC(=O)[C@@H]2CCCN2C(=O)[C@H](CC(C)C)NC(=O)CNC(=O)[C@H](Cc2ccccc2)NC(=O)[C@@H](NC(=O)CNC(=O)[C@H](CCC(N)=O)NC(=O)[C@H](CO)NC(=O)[C@H](CO)NC(=O)CNC(=O)[C@H](CCCCN)NC(=O)[C@H](CCCCN)NC(=O)[C@H](CCC(N)=O)NC(=O)[C@H](C)NC(=O)CNC(=O)[C@H](CCCCN)NC(=O)[C@H](Cc2ccc(O)cc2)NC(=O)[C@H](CCCCN)NC(=O)[C@H](CCCNC(=N)N)NC(=O)[C@H](C)NC(=O)[C@@H]2CCCN2C(=O)[C@H](C)NC(=O)[C@H](CCC(N)=O)NC(=O)CNC(=O)COCCOCCNC(=O)COCCOCCNC(=O)CC[C@H](NC(=O)CC[C@H](NC(=O)CC[C@H](NC(=O)CC[C@H](NC(=O)CCCCCCCCCCCCCCCCC(=O)O)C(=O)O)C(=O)O)C(=O)O)C(=O)O)CSSC[C@@H](C(=O)O)NC(=O)CNC(=O)[C@H](CC(C)C)NC(=O)CNC(=O)[C@H](CO)NC(=O)[C@H](CC(C)C)NC(=O)[C@H](CO)NC(=O)CNC1=O [compound 1459] ({C18 diacid-γGlu-γGlu-γGlu-γGlu-AEEA-AEEA}-GQAPARKYKGAQKKGSSQGCFGLPLDRIGSLSGLGC-OH; disulfide 20-36),76.1
3,CC[C@H](C)[C@@H]1NC(=O)[C@H](CCCNC(=N)N)NC(=O)[C@H](CC(=O)O)NC(=O)[C@H](CC(C)C)NC(=O)[C@@H]2CCCN2C(=O)[C@H](CC(C)C)NC(=O)CNC(=O)[C@H](Cc2ccccc2)NC(=O)[C@@H](NC(=O)CNC(=O)[C@H](CCCCN)NC(=O)[C@H](CO)NC(=O)[C@H](CC(C)C)NC(=O)CNC(=O)[C@H](CCCCN)NC(=O)[C@H](CCCCN)NC(=O)[C@H](CCC(N)=O)NC(=O)[C@H](C)NC(=O)CNC(=O)[C@H](CCCCN)NC(=O)[C@H](Cc2ccc(O)cc2)NC(=O)[C@H](CCCCN)NC(=O)[C@H](CCCNC(=N)N)NC(=O)[C@H](C)NC(=O)COCCOCCNC(=O)COCCOCCNC(=O)CC[C@H](NC(=O)CC[C@H](NC(=O)CC[C@H](NC(=O)CC[C@H](NC(=O)CC[C@H](NC(=O)CC[C@H](NC(=O)CCCCCCCCCCCCCCCCC(=O)O)C(=O)O)C(=O)O)C(=O)O)C(=O)O)C(=O)O)C(=O)O)CSSC[C@@H](C(=O)O)NC(=O)CNC(=O)[C@H](CC(C)C)NC(=O)CNC(=O)[C@H](CO)NC(=O)[C@H](CC(C)C)NC(=O)[C@H](CO)NC(=O)CNC1=O [compound 1460] ({C18 diacid-γGlu-γGlu-γGlu-γGlu-γGlu-γGlu-AEEA-AEEA}-ARKYKGAQKKGLSKGCFGLPLDRIGSLSGLGC-OH; disulfide 16-32),32.4
4,CC[C@H](C)[C@@H]1NC(=O)[C@H](CCCNC(=N)N)NC(=O)[C@H](CC(=O)O)NC(=O)[C@H](CC(C)C)NC(=O)[C@@H]2CCCN2C(=O)[C@H](CC(C)C)NC(=O)CNC(=O)[C@H](Cc2ccccc2)NC(=O)[C@@H](NC(=O)CNC(=O)[C@H](CCC(N)=O)NC(=O)[C@H](CO)NC(=O)[C@H](CC(C)C)NC(=O)CNC(=O)[C@H](CCCCN)NC(=O)[C@H](CCCCN)NC(=O)[C@H](CCC(N)=O)NC(=O)[C@H](C)NC(=O)CNC(=O)[C@H](Cc2c[nH]cn2)NC(=O)[C@H](Cc2ccc(O)cc2)NC(=O)COCCOCCNC(=O)COCCOCCNC(=O)COCCOCCNC(=O)COCCOCCNC(=O)CC[C@H](NC(=O)CC[C@H](NC(=O)CCCCCCCCCCCCCCCCC(=O)O)C(=O)O)C(=O)O)CSSC[C@@H](C(=O)O)NC(=O)CNC(=O)[C@H](CC(C)C)NC(=O)CNC(=O)[C@H](CO)NC(=O)[C@H](CC(C)C)NC(=O)[C@H](CO)NC(=O)CNC1=O [compound 1461] ({C18 diacid-γGlu-γGlu-AEEA-AEEA-AEEA-AEEA}-YHGAQKKGLSQGCFGLPLDRIGSLSGLGC-OH; disulfide 13-29),28.9
5,CC[C@H](C)[C@@H]1NC(=O)[C@H](CCCNC(=N)N)NC(=O)[C@H](CC(=O)O)NC(=O)[C@H](CC(C)C)NC(=O)[C@@H]2CCCN2C(=O)[C@H](CC(C)C)NC(=O)CNC(=O)[C@H](Cc2ccccc2)NC(=O)[C@@H](NC(=O)CNC(=O)[C@H](CCCCN)NC(=O)[C@H](CO)NC(=O)[C@H](CC(C)C)NC(=O)CNC(=O)[C@H](CCCCN)NC(=O)[C@H](CCCCN)NC(=O)[C@H](CCC(N)=O)NC(=O)[C@H](C)NC(=O)CNC(=O)[C@H](CCCCN)NC(=O)[C@H](Cc2ccc(O)cc2)NC(=O)[C@H](CCCCN)NC(=O)[C@H](CCCNC(=N)N)NC(=O)[C@H](C)NC(=O)COCCOCCNC(=O)COCCOCCNC(=O)COCCOCCNC(=O)COCCOCCNC(=O)CC[C@H](NC(=O)CC[C@H](NC(=O)CC[C@H](NC(=O)CC[C@H](NC(=O)CC[C@H](NC(=O)CCCCCCCCCCCCCCCCC(=O)O)C(=O)O)C(=O)O)C(=O)O)C(=O)O)C(=O)O)CSSC[C@@H](C(=O)O)NC(=O)CNC(=O)[C@H](CC(C)C)NC(=O)CNC(=O)[C@H](CO)NC(=O)[C@H](CC(C)C)NC(=O)[C@H](CO)NC(=O)CNC1=O [compound 1462] ({C18 diacid-γGlu-γGlu-γGlu-γGlu-γGlu-AEEA-AEEA-AEEA-AEEA}-ARKYKGAQKKGLSKGCFGLPLDRIGSLSGLGC-OH; disulfide 16-32),106.6
6,CC[C@H](C)[C@@H]1NC(=O)[C@H](CCCNC(=N)N)NC(=O)[C@H](CC(=O)O)NC(=O)[C@H](CC(C)C)NC(=O)[C@H](CCCCN)NC(=O)[C@H](CC(C)C)NC(=O)CNC(=O)[C@H](Cc2ccccc2)NC(=O)[C@@H](NC(=O)CNC(=O)[C@H](CCC(N)=O)NC(=O)[C@H](CO)NC(=O)[C@H](CC(C)C)NC(=O)CNC(=O)[C@H](CCCCN)NC(=O)[C@H](CCCCN)NC(=O)[C@H](CCC(N)=O)NC(=O)[C@H](C)NC(=O)CNC(=O)[C@H](CCCCN)NC(=O)[C@H](Cc2ccc(O)cc2)NC(=O)[C@H](CCCCN)NC(=O)[C@H](CCCNC(=N)N)NC(=O)[C@H](C)NC(=O)COCCOCCNC(=O)COCCOCCNC(=O)COCCOCCNC(=O)COCCOCCNC(=O)CC[C@H](NC(=O)CC[C@H](NC(=O)CC[C@H](NC(=O)CC[C@H](NC(=O)CC[C@H](NC(=O)CCCCCCCCCCCCCCCCC(=O)O)C(=O)O)C(=O)O)C(=O)O)C(=O)O)C(=O)O)CSSC[C@@H](C(=O)O)NC(=O)CNC(=O)[C@H](CC(C)C)NC(=O)CNC(=O)[C@H](CO)NC(=O)[C@H](CC(C)C)NC(=O)[C@H](CO)NC(=O)CNC1=O [compound 1463] ({C18 diacid-γGlu-γGlu-γGlu-γGlu-γGlu-AEEA-AEEA-AEEA-AEEA}-ARKYKGAQKKGLSQGCFGLKLDRIGSLSGLGC-OH; disulfide 16-32),20.0
